Data taken from patent US9663473B2 (Actelion Pharmaceuticals Ltd, priority 2013, dated 2017).
Where a name gives a salt, the structure may show the parent alone.

Biological target: T1, recombinant human ALX receptor (Homo sapiens, UniProt P25090)
T1 construct: expressed in transfected cells; host or cells: HEK293 (HEK293-hALXR-Gα16)
T1 sequence (P25090 1-351): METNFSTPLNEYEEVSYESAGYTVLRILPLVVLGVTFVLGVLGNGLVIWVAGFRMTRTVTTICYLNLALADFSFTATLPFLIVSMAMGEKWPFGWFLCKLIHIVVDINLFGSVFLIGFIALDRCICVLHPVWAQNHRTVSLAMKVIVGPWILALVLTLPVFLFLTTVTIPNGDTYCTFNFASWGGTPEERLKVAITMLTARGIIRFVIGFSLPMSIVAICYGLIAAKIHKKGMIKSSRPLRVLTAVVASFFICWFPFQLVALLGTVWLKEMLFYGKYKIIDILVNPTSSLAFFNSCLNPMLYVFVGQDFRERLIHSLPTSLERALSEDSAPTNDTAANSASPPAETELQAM
Test: Intracellular calcium measurements (FLIPR), ALX receptor agonistic activity
Type: cell-based
Settings: HEK293-hALXR-Gα16 cells, Fluo-4 calcium signal, normalized to WKYMVm 10 nM
Method in brief: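 HEK293 cells co-expressing human ALX receptor and Gα16 were loaded with 1 μM Fluo-4 AM for 60 min at 37° C., then exposed to serially diluted compounds on FLIPR Tetra. Peak fluorescence above baseline (ex 488/em 540 nm) was normalized to 10 nM WKYMVm as high control.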

Structure (SMILES)	EC50
COC[C@H](NC(=O)N[C@H](Cc1ccc(OC)cc1)c1nc2ccccc2[nH]1)c1ccccc1 [Example 201, 1-((R)-1-(1H-Benzo[d]imidazol-2-yl)-2-(4-methoxyphenyl)ethyl)-3-((R)-2-methoxy-1-phenylethyl)urea]	54 nM
COc1ccc(C[C@@H](NC(=O)N[C@H](CO)c2ccccc2)c2nc3ccccc3[nH]2)cc1 [Example 203, 1-((R)-1-(1H-Benzo[d]imidazol-2-yl)-2-(4-methoxyphenyl)ethyl)-3-((S)-2-hydroxy-1-phenylethyl)urea]	176 nM
COC[C@H](Cc1ccccc1)NC(=O)N[C@H](Cc1ccc(OC)cc1)c1nc2ccccc2[nH]1 [Example 204, 1-((R)-1-(1H-Benzo[d]imidazol-2-yl)-2-(4-methoxyphenyl)ethyl)-3-((S)-1-methoxy-3-phenylpropan-2-yl)urea]	5 nM
COc1ccc(C[C@@H](NC(=O)N[C@@H](CO)Cc2ccccc2)c2nc3ccccc3[nH]2)cc1 [Example 205, 1-((R)-1-(1H-Benzo[d]imidazol-2-yl)-2-(4-methoxyphenyl)ethyl)-3-((R)-1-hydroxy-3-phenylpropan-2-yl)urea]	62 nM
COc1ccc(C[C@@H](NC(=O)N[C@@H](Cc2ccccc2)C(N)=O)c2nc3ccccc3[nH]2)cc1 [Example 208, (S)-2-(3-((R)-1-(1H-Benzo[d]imidazol-2-yl)-2-(4-methoxyphenyl)ethyl)ureido)-3-phenylpropanamide]	21 nM
COc1ccc(C[C@@H](NC(=O)N[C@H](C)[C@@H](O)c2ccccc2)c2nc3ccccc3[nH]2)cc1 [Example 209, 1-((R)-1-(1H-Benzo[d]imidazol-2-yl)-2-(4-methoxyphenyl)ethyl)-3-((1S,2R)-1-hydroxy-1-phenylpropan-2-yl)urea]	1.5 nM
COc1ccc(C[C@@H](NC(=O)NCc2ccccc2C#N)c2nc3ccccc3[nH]2)cc1 [Example 211, (R)-1-(1-(1H-Benzo[d]imidazol-2-yl)-2-(4-methoxyphenyl)ethyl)-3-(2-cyanobenzyl)urea]	167 nM
COc1ccc(C[C@@H](NC(=O)N[C@H](CO)Cc2ccccc2)c2nc3ccccc3[nH]2)cc1 [Example 212, 1-((R)-1-(1H-Benzo[d]imidazol-2-yl)-2-(4-methoxyphenyl)ethyl)-3-((S)-1-hydroxy-3-phenylpropan-2-yl)urea]	2.8 nM
COc1ccc(C[C@@H](NC(=O)Nc2c(-c3ccccc3)noc2C)c2nc3ccccc3[nH]2)cc1 [Example 213, (R)-1-(1-(1H-Benzo[d]imidazol-2-yl)-2-(4-methoxyphenyl)ethyl)-3-(5-methyl-3-phenylisoxazol-4-yl)urea]	53 nM
COc1ccc(C[C@@H](NC(=O)NC(CN2CCOCC2)c2ccccc2)c2nc3ccccc3[nH]2)cc1 (stereo partly drawn) [Example 214, 1-((R)-1-(1H-Benzo[d]imidazol-2-yl)-2-(4-methoxyphenyl)ethyl)-3-(2-morpholino-1-phenylethyl)urea]	28 nM
COc1ccc(C[C@@H](NC(=O)NCC(c2ccccc2)N2CCOCC2)c2nc3ccccc3[nH]2)cc1 (stereo partly drawn) [Example 215, 1-((R)-1-(1H-Benzo[d]imidazol-2-yl)-2-(4-methoxyphenyl)ethyl)-3-(2-morpholino-2-phenylethyl)urea]	8.9 nM
COc1ccc(C[C@@H](NC(=O)NCc2cccnc2COC(C)C(F)(F)F)c2nc3ccccc3[nH]2)cc1 (stereo partly drawn) [Example 216, 1-((R)-1-(1H-Benzo[d]imidazol-2-yl)-2-(4-methoxyphenyl)ethyl)-3-((2-(((1,1,1-trifluoropropan-2-yl)oxy)methyl)pyridin-3-yl)methyl)urea]	2.1 nM
COc1ccc(C[C@@H](NC(=O)NCc2nccnc2OCC(F)(F)F)c2nc3ccccc3[nH]2)cc1 [Example 217, (R)-1-(1-(1H-Benzo[d]imidazol-2-yl)-2-(4-methoxyphenyl)ethyl)-3-((3-(2,2,2-trifluoroethoxy)pyrazin-2-yl)methyl)urea]	19 nM
COc1ccc(C[C@@H](NC(=O)NC2COCc3ccccc32)c2nc3ccccc3[nH]2)cc1 (stereo partly drawn) [Example 218, 1-((R)-1-(1H-Benzo[d]imidazol-2-yl)-2-(4-methoxyphenyl)ethyl)-3-(isochroman-4-yl)urea]	34 nM
O=C(N[C@H](Cc1ccc(Br)cc1)c1nc2ccc(C(F)(F)F)cc2[nH]1)N[C@H]1CC[C@H](O)CC1 [Example 222, 1-((R)-2-(4-Bromophenyl)-1-(6-(trifluoromethyl)-1H-benzo[d]imidazol-2-yl)ethyl)-3-(trans-4-hydroxycyclohexyl)urea]	7.8 nM

More lines, now with the values ahead:

EC50	Structure (SMILES)
602 nM	COc1ccc(C[C@@H](NC(=O)NCc2ccccc2C)c2nc3ccccc3[nH]2)cc1 [Example 202, (R)-1-(1-(1H-Benzo[d]imidazol-2-yl)-2-(4-methoxyphenyl)ethyl)-3-(2-methylbenzyl)urea]
144 nM	COc1ccc(C[C@@H](NC(=O)NCc2cccnc2N2CCOCC2)c2nc3ccccc3[nH]2)cc1 [Example 206, (R)-1-(1-(1H-Benzo[d]imidazol-2-yl)-2-(4-methoxyphenyl)ethyl)-3-((2-morpholinopyridin-3-yl)methyl)urea]
835 nM	COc1ccc(C[C@@H](NC(=O)NCc2ccccc2Cl)c2nc3ccccc3[nH]2)cc1 [Example 207, (R)-1-(1-(1H-Benzo[d]imidazol-2-yl)-2-(4-methoxyphenyl)ethyl)-3-(2-chlorobenzyl)urea]
14 nM	COc1ccc(C[C@@H](NC(=O)NCc2ccccc2OCC(F)(F)F)c2nc3ccccc3[nH]2)cc1 [Example 219, (R)-1-(1-(1H-Benzo[d]imidazol-2-yl)-2-(4-methoxyphenyl)ethyl)-3-(2-(2,2,2-trifluoroethoxy)benzyl)urea]
4.9 nM	O=C(N[C@H](Cc1ccc(Br)cc1)c1nc2ccccc2[nH]1)NC12CCC(O)(CC1)CC2 [Example 220, (R)-1-(1-(1H-Benzo[d]imidazol-2-yl)-2-(4-bromophenyl)ethyl)-3-(4-hydroxybicyclo[2.2.2]octan-1-yl)urea]
4 nM	Cc1ccc2nc([C@@H](Cc3ccc(Br)cc3)NC(=O)N[C@H]3CC[C@H](O)CC3)[nH]c2c1 [Example 221, 1-((R)-2-(4-Bromophenyl)-1-(6-methyl-1H-benzo[d]imidazol-2-yl)ethyl)-3-(trans-4-hydroxycyclohexyl)urea]
178 nM	COc1ccc(C[C@@H](NC(=O)N[C@H]2CC[C@@H](C(=O)OC)CC2)c2nc3ccccc3[nH]2)cc1 [Example 223, cis-Methyl 4-(3-((R)-1-(1H-benzo[d]imidazol-2-yl)-2-(4-methoxyphenyl)ethyl)ureido)cyclohexanecarboxylate]
8.2 nM	COc1ccc(C[C@@H](NC(=O)N[C@H]2CC[C@H](C(=O)OC)CC2)c2nc3ccccc3[nH]2)cc1 [Example 224, trans-Methyl 4-(3-((R)-1-(1H-benzo[d]imidazol-2-yl)-2-(4-methoxyphenyl)ethyl)ureido)cyclohexanecarboxylate]
48 nM	COc1ccc(C[C@@H](NC(=O)N[C@H]2CC[C@H](C(=O)O)CC2)c2nc3ccccc3[nH]2)cc1 [Example 225, trans-4-(3-((R)-1-(1H-Benzo[d]imidazol-2-yl)-2-(4-methoxyphenyl)ethyl)ureido)cyclohexanecarboxylic acid, lithium salt]
11 nM	COC(=O)C1CCCC(NC(=O)N[C@H](Cc2ccc(OC)cc2)c2nc3ccccc3[nH]2)C1 (stereo partly drawn) [Example 228, Methyl 3-(3-((R)-1-(1H-benzo[d]imidazol-2-yl)-2-(4-methoxyphenyl)ethyl)ureido)cyclohexanecarboxylate]
94 nM	COc1ccc(C[C@@H](NC(=O)NC2CCCC(C(=O)O)C2)c2nc3ccccc3[nH]2)cc1 (stereo partly drawn) [Example 229, Lithium 3-(3-((R)-1-(1H-benzo[d]imidazol-2-yl)-2-(4-methoxyphenyl)ethyl)ureido)cyclohexanecarboxylate]
21 nM	O=C(NC(Cc1ccc(Br)c(F)c1)c1nc2ccccc2[nH]1)NC12CCC(O)(CC1)CC2 (stereo not shown) [Example 230, 1-(1-(1H-Benzo[d]imidazol-2-yl)-2-(4-bromo-3-fluorophenyl)ethyl)-3-(4-hydroxybicyclo[2.2.2]octan-1-yl)urea]
3.7 nM	COc1ccc(CC(NC(=O)NC23CCC(O)(CC2)CC3)c2nc3ccccc3[nH]2)c(F)c1 (stereo not shown) [Example 233, 1-(1-(1H-Benzo[d]imidazol-2-yl)-2-(2-fluoro-4-methoxyphenyl)ethyl)-3-(4-hydroxybicyclo[2.2.2]octan-1-yl)urea]
36 nM	O=C(NC(Cc1ccc(C(F)(F)F)c(F)c1)c1nc2ccccc2[nH]1)NC12CCC(O)(CC1)CC2 (stereo not shown) [Example 238, 1-(1-(1H-Benzo[d]imidazol-2-yl)-2-(3-fluoro-4-(trifluoromethyl)phenyl)ethyl)-3-(4-hydroxybicyclo[2.2.2]octan-1-yl)urea]
4.1 nM	COc1ccc(CC(NC(=O)NC23CCC(O)(CC2)CC3)c2nc3ccc(F)cc3[nH]2)c(F)c1 (stereo not shown) [Example 245, 1-(1-(6-Fluoro-1H-benzo[d]imidazol-2-yl)-2-(2-fluoro-4-methoxyphenyl)ethyl)-3-(4-hydroxybicyclo[2.2.2]octan-1-yl)urea]
4.5 nM	COc1cc(F)c(CC(NC(=O)NC23CCC(O)(CC2)CC3)c2nc3ccccc3[nH]2)c(F)c1 (stereo not shown) [Example 248, 1-(1-(1H-Benzo[d]imidazol-2-yl)-2-(2,6-difluoro-4-methoxyphenyl)ethyl)-3-(4-hydroxybicyclo[2.2.2]octan-1-yl)urea]
